Experimental data published in patent US6894047B2, “Triazine compounds useful as sorbitol dehydrogenase inhibitors” (Pfizer Inc., priority 2001, dated 2005).

Question: With CC(O)c1ncnc(N2CC(C)N(c3nc(O)nc(-c4ccccc4)n3)C(C)C2)n1 (stereo not drawn) [Example 14, 1-{4-[4-(4-Hydroxy-6-phenyl-[1,3,5]triazin-2-yl)-3R,5S-dimethyl-piperazin-1-yl]-[1,3,5]triazin-2-yl}-ethanol] as the compound, how does the melting point read?
Answer: > 275 °C

Question: For Cc1nc(O)nc(N2C(C)CN(c3ncnc(C(C)O)n3)CC2C)n1 (stereo not drawn) [Example 15, 1-{4-[4-(4-Hydroxy-3-methyl-[1,3,5]triazin-2-yl)-3R,5S-dimethyl-piperazin-1-yl]-[1,3,5]triazin-2-yl}-ethanol], which melting point is on record?
Answer: 263 to 265 °C

Question: Which melting point does the source give for CC1CN(c2ncnc(CO)n2)CC(C)N1c1ncnc(CO)n1 (stereo not drawn) [Example 11, 1-{4-[4-(4-Hydroxymethyl-[1,3,5]triazin-2-yl)-3R,5S-dimethyl-piperazin-1-yl]-[1,3,5]triazin-2-yl}-methanol] here?
Answer: 224 to 225 °C

Question: For COc1nc(C)nc(N2C(C)CN(c3ncnc(CO)n3)CC2C)n1 (stereo not drawn) [Example 12, 1-{4-[4-(4-methoxy-6-methyl-[1,3,5]triazin-2-yl)-3R,5S-dimethyl-piperazin-1-yl]-[1,3,5]triazin-2-yl}-methanol], which melting point is on record?
Answer: 155 to 160 °C

Question: For CC1CN(c2ncnc(CO)n2)CC(C)N1c1ncnc(-c2ccccc2)n1 (stereo not drawn) [Example 10, 1-{4-[4-(4-phenyl-[1,3,5]triazin-2-yl)-3R,5S-dimethyl-piperazin-1-yl]-[1,3,5]triazin-2-yl}-methanol], which melting point is on record?
Answer: 206 to 207 °C

Question: Which melting point does the source give for CC1CN(c2ncnc(-c3ccccc3)n2)CC(C)N1c1ncnc(CO)n1 (stereo not drawn) [Example 16, 1-{4-[4-(4-Phenyl-[1,3,5]triazin-2-yl)-2R,6S-dimethyl-piperazin-1-yl]-[1,3,5]triazin-2-yl}-methanol] here?
Answer: 197 to 198 °C
